According to the supplement of paper PMC6045584:
± gives the standard deviation of the averaged measurements.

Columns and labels:
[1] = compound: Cn1cc(C2=Nc3cc(NC(=O)C(N)C4CCCCC4)cc4c3C2=CNNC4=O)cn1; experiment: surviving fraction relative to DMSO-only wells; higher = less growth inhibition; details: exposure time: 5 days
Summary of the method: (§1)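 After seeding at 250–500 cells per well in 384-well plates and a 24-hour wait, log-phase tumour cell lines were exposed without interruption for five days to inhibitors at 0.5, 1, 5, 10, 50, 100, 500 and 1000 nM. CellTiter-Glo luminescence was recorded after 10 minutes at room temperature. Viability is reported as surviving fraction, the luminescence normalised to the median of DMSO-only wells.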

[2] = compound: T1, CNC(=O)c1ccc(N2C(=S)N(c3ccc(C#N)c(C(F)(F)F)c3)C(=O)C2(C)C)cc1F [MDV3100]; experiment: as above; details: exposure time: 5 days
Summary of the method: as §1

[3] = compound: C=CC(=O)Nc1cc2c(Nc3ccc(F)c(Cl)c3)ncnc2cc1OCCCN1CCOCC1 [CANERTINIB]; experiment: area under dose-response curve of surviving fraction (unscaled, Aref=0) (surviving fraction x log10(nM)); higher = more resistant; details: exposure time: 5 days; dose range 0.5-1000 nM
Summary of the method: (§2)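 Each tumour cell line was screened three times in 384-well plates, receiving eight inhibitor concentrations from 0.5 to 1000 nM for five days. CellTiter-Glo luminescence gave viability, normalised to DMSO-only wells. Using the drc R package, surviving fractions were fitted with 3-parameter logistic dose-response curves, and the unscaled activity area over log10 dose (Aref = 0) was taken as the area under the curve.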

[4] = compound: CC[C@@H]1C(=O)N(C)c2cnc(Nc3ccc(C(=O)NC4CCN(C)CC4)cc3OC)nc2N1C1CCCC1 [BI-2536]; experiment: as above; details: exposure time: 5 days; dose range 0.5-1000 nM
Summary of the method: as §2

[5] = compound: T1, MDV3100; experiment: as above; details: exposure time: 5 days; dose range 0.5-1000 nM
Summary of the method: as §2

[6] = compound: CC1(C)CC(=O)c2c(C(F)(F)F)nn(-c3ccc(C(N)=O)c(N[C@H]4CC[C@H](OC(=O)CN)CC4)c3)c2C1 [SNX-5422]; experiment: as above; details: exposure time: 5 days; dose range 0.5-1000 nM
Summary of the method: as §2

Test System | surviving fraction ([1]; 0.5 nM) | surviving fraction ([1]; 1 nM) | surviving fraction ([1]; 5 nM) | surviving fraction ([1]; 10 nM) | surviving fraction ([1]; 50 nM) | surviving fraction ([1]; 100 nM) | surviving fraction ([1]; 500 nM) | surviving fraction ([1]; 1000 nM) | surviving fraction ([2]; 0.5 nM) | surviving fraction ([2]; 1 nM) | surviving fraction ([2]; 5 nM) | surviving fraction ([2]; 10 nM) | surviving fraction ([2]; 50 nM) | surviving fraction ([2]; 100 nM) | surviving fraction ([2]; 500 nM) | surviving fraction ([2]; 1000 nM) | area under dose-response curve [3] | area under dose-response curve [4] | area under dose-response curve [5] | area under dose-response curve [6]
22RV1 PROSTATE | 1.07 ± 0.021 | 1.08 ± 0.059 | 0.99 ± 0.015 | 1.01 ± 0.02 | 1.03 ± 0.054 | 0.854 ± 0.037 | 0.626 ± 0.064 | 0.489 ± 0.029 | 0.953 ± 0.067 | 0.954 ± 0.061 | 0.997 ± 0.051 | 0.938 ± 0.066 | 0.934 ± 0.12 | 0.968 ± 0.04 | 0.862 ± 0.21 | 0.781 ± 0.27 | 3.32 | 0.963 | 3.12 | 1.82
93VU HEADNECK | 0.976 ± 0.077 | 1 ± 0.069 | 1.07 ± 0.02 | 1.09 ± 0.087 | 0.948 ± 0.033 | 0.945 ± 0.064 | 0.741 ± 0.044 | 0.388 ± 0.05 | 0.848 ± 0.096 | 0.876 ± 0.058 | 1.05 ± 0.099 | 0.994 ± 0.12 | 1.07 ± 0.15 | 1.04 ± 0.22 | 0.887 ± 0.03 | 0.771 ± 0.016 | 2.56 | 1.49 | 3.11 | 2.18
143B BONE | 0.981 ± 0.052 | 1.01 ± 0.029 | 0.992 ± 0.033 | 1.0045 ± 0.00071 | 0.96 ± 0.052 | 1 ± 0.035 | 0.303 ± 0.0042 | 0.036 ± 0.0014 | 1.07 ± 0.061 | 1.1 ± 0.1 | 1.09 ± 0.086 | 1.09 ± 0.088 | 1.13 ± 0.12 | 1.13 ± 0.11 | 1.11 ± 0.11 | 1.1 ± 0.093 |  | 0.815 |  | 2.02
A549 LUNG | 1.04 ± 0.034 | 1.08 ± 0.082 | 1.03 ± 0.021 | 1.03 ± 0.018 | 1.08 ± 0.048 | 1.02 ± 0.033 | 1.06 ± 0.029 | 1.01 ± 0.02 | 0.971 ± 0.011 | 0.941 ± 0.029 | 0.978 ± 0.011 | 0.934 ± 0.032 | 1 ± 0.038 | 1.01 ± 0.015 | 1.01 ± 0.033 | 0.983 ± 0.04 | 3.08 | 1.16 | 3.23 | 2.28
ASKA SYNOVIAL | 0.985 ± 0.08 | 1 ± 0.075 | 0.98 ± 0.028 | 0.992 ± 0.048 | 0.65 ± 0.054 | 0.355 ± 0.028 | 0.174 ± 0.013 | 0.229 ± 0.0066 | 1.01 ± 0.051 | 0.966 ± 0.037 | 1.05 ± 0.017 | 0.59 ± 0.051 | 1.15 ± 0.13 | 1.07 ± 0.065 | 1.14 ± 0.095 | 0.678 ± 0.079 |  | 1.04 |  | 2.11
BT20 BREAST | 1.1 ± 0.05 | 1.08 ± 0.047 | 1.09 ± 0.092 | 1.05 ± 0.074 | 0.943 ± 0.08 | 0.847 ± 0.054 | 0.976 ± 0.1 | 0.874 ± 0.065 | 1.1 ± 0.12 | 1.15 ± 0.066 | 1.11 ± 0.042 | 1.14 ± 0.029 | 0.907 ± 0.036 | 1.13 ± 0.068 | 0.969 ± 0.1 | 1.02 ± 0.03 | 2.52 | 0.663 | 3.5 | 2.46
BT549 BREAST | 1.07 ± 0.11 | 0.943 ± 0.079 | 0.957 ± 0.21 | 1.05 ± 0.14 | 0.659 ± 0.073 | 0.371 ± 0.012 | 0.0533 ± 0.008 | 0.027 ± 0.006 | 0.957 ± 0.078 | 1.02 ± 0.089 | 1 ± 0.11 | 0.939 ± 0.0099 | 1.01 ± 0.036 | 0.996 ± 0.099 | 0.992 ± 0.076 | 0.98 ± 0.057 | 2.74 | 0.891 | 3.26 | 1.94
CAL51 BREAST | 0.889 ± 0.037 | 0.973 ± 0.041 | 0.945 ± 0.052 | 0.903 ± 0.037 | 0.962 ± 0.079 | 0.875 ± 0.048 | 0.484 ± 0.0085 | 0.276 ± 0.026 | 0.969 ± 0.025 | 0.944 ± 0.014 | 0.985 ± 0.016 | 0.976 ± 0.013 | 0.984 ± 0.029 | 1.05 ± 0.042 | 0.978 ± 0.11 | 0.979 ± 0.082 | 3.08 | 0.68 | 3.24 | 1.93
CAL72 BONE | 1.04 ± 0.03 | 1.02 ± 0.038 | 1.02 ± 0.019 | 1.02 ± 0.04 | 0.937 ± 0.052 | 0.836 ± 0.043 | 0.111 ± 0.011 | 0.147 ± 0.01 | 0.965 ± 0.087 | 0.992 ± 0.041 | 1 ± 0.073 | 1 ± 0.021 | 1.08 ± 0.076 | 0.986 ± 0.17 | 1.05 ± 0.13 | 1.02 ± 0.15 |  | 0.831 | 3.36 | 2.02
CAL120 BREAST | 0.966 ± 0.012 | 1.02 ± 0.019 | 1.01 ± 0.013 | 1.01 ± 0.038 | 0.966 ± 0.029 | 0.856 ± 0.044 | 0.375 ± 0.02 | 0.24 ± 0.023 | 0.906 ± 0.066 | 0.905 ± 0.025 | 0.931 ± 0.051 | 0.925 ± 0.077 | 0.941 ± 0.058 | 0.935 ± 0.042 | 0.953 ± 0.059 | 0.955 ± 0.025 | 3.01 | 0.616 | 3.07 | 1.77
CASKI CERVIX | 0.918 ± 0.028 | 0.962 ± 0.082 | 0.92 ± 0.028 | 0.949 ± 0.038 | 0.511 ± 0.043 | 0.251 ± 0.071 | 0.057 ± 0.0095 | 0.0573 ± 0.0038 | 0.904 ± 0.031 | 0.894 ± 0.047 | 0.99 ± 0.026 | 0.903 ± 0.059 | 0.944 ± 0.022 | 1.08 ± 0.073 | 0.95 ± 0.046 | 0.992 ± 0.072 | 1.85 | 0.43 | 3.17 | 1.63
CHLA90 AUTONOMIC GANGLIA | 1.01 ± 0.025 | 1.07 ± 0.07 | 0.956 ± 0.057 | 0.992 ± 0.023 | 0.772 ± 0.03 | 0.557 ± 0.04 | 0.101 ± 0.0068 | 0.0843 ± 0.011 | 0.946 ± 0.11 | 0.812 ± 0.07 | 0.878 ± 0.077 | 0.362 ± 0.028 | 1 ± 0.078 | 0.94 ± 0.12 | 1 ± 0.076 | 0.625 ± 0.14 | 2.51 | 1.2 | 2.67 | 2.04
CME SYNOVIAL | 1.243 ± 0.0098 | 1.27 ± 0.03 | 1.3 ± 0.06 | 1.23 ± 0.059 | 1.13 ± 0.049 | 1.02 ± 0.065 | 0.733 ± 0.036 | 0.414 ± 0.0087 | 1.2 ± 0.075 | 0.852 ± 0.11 | 1.09 ± 0.089 | 0.18 ± 0.044 | 1.22 ± 0.053 | 1.09 ± 0.13 | 1.16 ± 0.1 | 0.451 ± 0.068 | 3.18 | 1.64 | 2.99 | 2.5
COLO320DM LARGE INTESTINE | 0.957 ± 0.12 | 1.09 ± 0.15 | 0.97 ± 0.076 | 1.08 ± 0.11 | 1.01 ± 0.23 | 0.954 ± 0.098 | 0.877 ± 0.13 | 0.664 ± 0.053 | 1.18 ± 0.14 | 0.995 ± 0.087 | 1.13 ± 0.022 | 0.533 ± 0.021 | 1.13 ± 0.086 | 1.042 ± 0.0052 | 1.12 ± 0.057 | 0.754 ± 0.052 | 3.25 | 1.68 | 3.31 | 2.19
DU4475 BREAST | 0.979 ± 0.32 | 0.981 ± 0.17 | 1.03 ± 0.2 | 0.96 ± 0.19 | 0.821 ± 0.25 | 0.659 ± 0.19 | 0.136 ± 0.026 | 0.0377 ± 0.0084 | 0.806 ± 0.11 | 0.938 ± 0.086 | 0.832 ± 0.098 | 0.992 ± 0.052 | 0.958 ± 0.074 | 0.907 ± 0.089 | 0.965 ± 0.11 | 0.933 ± 0.046 | 2.65 | 1.14 | 3.04 | 1.76
